Like-named read-outs stand apart in the source and are kept apart here. Marks after values point to notes of the source that are not given here. One block for each compound: values may come before it.
Columns and labels:
[1] = system: NCI-H209 human small cell lung cancer xenograft tumor; test: In vivo efficacy of IMP4297 combined with TMZ in NCI-H209 xenograft tumor model; set-up: species or system nude mice; conditions: for body weight reduction during the experiment: single agent-treated groups (TMZ 3 mg/kg; IMP4297 10 mg/kg)
Experimental: The anti-tumor efficacy of the compound IMP4297 combined with TMZ was evaluated in the NCI-H209 human small cell lung cancer xenograft tumor model in nude mice. For this purpose, human small cell lung cancer NCI-H209 cells were inoculated into the subcutaneous breast area of the right axilla of nude mice. The cell inoculation amount was 2×10^6 logarithmic growth phase cells. The inoculated mice were used after transplanted tumors were formed. Vigorously growing tumor tissues were cut into small pieces of 1×1×1 mm^3, and inoculated under the skin of the breast area of the right axilla of each BALB/c nude mouse. When the average tumor volume reached about 124.08 (57.16-280.79) mm^3, nude mice were randomly grouped according to the tumor volume and were administered the drugs.
After grouping and drug treatment start, the weight of nude mice was weighed twice a week and recorded. Weight change (%)=(Wt−W1)/W1×100%, wherein W1 is the body weight measured at the time of grouping administration (i.e D1), and Wt is the weight of the recording day. Weight change (%) is a measure of treatment-related toxicity (when average weight loss exceeded 15%, treatment was stopped or the schedule was adjusted until recovery; when average weight loss exceeded 20%, the experiment was terminated). The tumor diameter (length and width) was measured twice a week with a vernier caliper. The tumor volume (length×width^2/2) and the relative tumor volume RTV=Vt/V1 were calculated, wherein V1 is the tumor volume at the time of grouping administration (i.e. D1), and Vt is the tumor volume at each measurement. […] TGM(%)=[(CVt−CV1)−(TVt−TV1)]/(CVt−CV1)×100%, wherein […] is the tumor volume on the recording day of the vehicle control group, […] is the tumor volume of the vehicle control group at the time of grouping administration, TVt is the tumor volume of the drug administration group on the recording day, and TV1 is the tumor volume of the drug administration group at the time of grouping administration.
After the experiment, 3 nude mice were randomly selected from each group, and 300 μL of whole blood was collected from the orbit and placed in a BD K2EDTA anticoagulant tube (REF367841) for routine blood testing.
GraphPad Prism 6.0 software two-way ANOVA was used to compare the mean tumor volume and relative tumor volume between groups. Compared with the control group (vehicle), *p<0.05 (statistical difference), **p<0.01 (significant statistical difference), ***p<0.001 (very significant statistical difference); compared with the TMZ group, ^#p<0.05 (statistical difference), ^##p<0.01 (significant statistical difference), ^###p<0.001 (very significant statistical difference); compared with the IMP4297 group, ^+p<0.05 (statistical difference), ^++p<0.01 (significant statistical difference), ^+++p<0.001 (very significant statistical difference).

[2] = system: animal model with BRCA mutation; test: IMP4297 single agent efficacy in animal model with BRCA mutation; format: in vivo; conditions: 2.5-20 mg/kg QD in mice
[3] = system: human small cell lung cancer NCI-H209 cells; test: CCK-8 growth inhibition of NCI-H209 cells, IMP4297 alone and combined with TMZ; format: cell-based; conditions: NCI-H209, 120 h
Experimental: The CCK-8 detection method was used to determine the inhibitory effect of IMP4297 combined with TMZ on the growth of human small cell lung cancer NCI-H209 cells. The resuscitated human small cell lung cancer NCI-H209 cells were inoculated into a culture dish, experimental medium (RPMI1640+20% FBS) was added, and the culture dish was incubated at 37° C. and 5% CO2 in an incubator. Cells with good growth and suitable confluence were selected for the experiment, and centrifiged at 800 rpm for 5 min. The supernatant was discarded. The cells were resuspended with fresh medium and inoculated into a 96-well cell culture plate at a suitable cell density. 190 μL of cell suspension liquid was inoculated into each well. The test compound (including IMP4297, TMZ and reference compound AZD2281) was serially diluted with DMSO at a ratio of 1:3 and 1:10 to 10 concentrations (the last concentration is the DMSO negative control). 5 μL of each concentration was added to 120 μL of media (25 times dilution). The mixture was mixed well by shaking. Separate medication: 5 μL of the diluted medium containing the corresponding concentration of the compound and 5 μL of the medium were added respectively, combined medication. 5 μL of the diluted medium containing the corresponding concentration of the compound and 5 μL of the medium containing the final concentration of 50 μM of TMZ were added respectively. The final concentration of DMSO is […]. The culture plate was then incubated at 37° C. and 5% CO2 in an incubator for 5 days. 20 μL of CCK-8 detection reagent was added to each well, and the culture was continued for 2 hours. The culture plate was then shaked for 10 minutes and placed on a multi-function reader to measure the absorbance value (OD value) using the wavelength of 450/65011m. Graph Pad Prism 6.0 was used to analyze the data. The inhibitory effects of compounds on cell proliferation were plotted based on cell viability and the logarithm of compound concentration. Cell viability % (nM) ODcompound/ODDMSO×100. […] The combination index was calculated using CalcuSyn software. […]

[4] = system: animal model with BRCA mutation; conditions: cited from earlier work
cancer [5] = test: Clinical studies of IMP4297 as a single agent in patients with cancer (ESMO 2020 abstracts); format: in vivo; conditions: 20-120 mg QD in human
cancer [6] = conditions: QD continuously, cited from earlier work
PARP1 [7] = target: T1, PARP1 (Homo sapiens, UniProt P09874); test: PARP1 trapping in DU145 cells treated with MMS (Western blot of nuclear chromosomal fraction, ImageJ); format: cell-based; set-up: the nuclear chromosomal component was extracted according to subcellular protein fractionation kit instructions; endogenous in cells; host or cells: DU145; conditions: for grey density value of PARP1 band: MMS 0.01%, 4 hours
Experimental: Human prostate cancer DU145 cells were used in the experiment. On the first day, cells were seeded to 10 cm cell culture dishes and kept in an incubator overnight. […] The plates were swirled, and the cells were kept in an incubator at 37° C., 5% CO2 for 4 hours. Totally 12 samples were prepared and tested. After incubation, the nuclear chromosomal component was extracted according to subcellular protein fractionation kit instructions. Protein concentration was measured by Pierce® BCA Protein Assay Kit (Thermo) and protein was ready for western blot assay. 10 μg protein was loaded into each well of bolt gels, then wet transfer was performed, and the membrane was incubated overnight at 4° C. with anti-PARP antibody (Santa Cruz Biotechnology) with 1.500 dilution and 1:25000 dilution of anti-H3 antibody, respectively. The membrane was washed the next day with TBST 3 times, 5 minutes/time, then incubated with Goat anti-rabbit IgG-HRP (Santa Cruz Biotechnology) in a 1:4000 dilution for 1 hour at room temperature. ECL Prime Western Blotting Det kit (GE) was used to develop the target on the membrane.

PARP1 [8] = target: T1, PARP1; test: PARP1 trapping in HCT116 cells treated with TMZ (Western blot of chromatin-bound proteins, ImageJ); format: cell-based; set-up: endogenous in cells; host or cells: HCT116; conditions: for grey density value of PARP1 band: 4 hours, HCT116
Experimental: Colorectal carcinoma HCT116 cells were used in the experiment Cells in exponential growth phase were trypsinized and seeded to 10 cm cell culture plate at a density about 10-20% confluency After two days when cell density reached 70-80%, the cell culture was replaced with fresh medium containing vehicle, 0.1 μM or 10 μM of IMP4297 either in the presence or absence of 1 mM TMZ. Cells were treated for 4 hours. Chromatin-bound proteins were extracted according to the “Subcellular Protein Fractionation Kit for Cultured Cells (Thermo, LOT78840)” protocol.
PARP trapping was detected using SDS-PAGE electrophoresis followed by Western blot Extracted chromatin-bound protein samples were mixed with 5×SDS-PAGE solution and heated for 5 min at 100° C. Equal amount (25-30 μg) of protein was loaded to each lane on a pre-made SDS-PAGE gel (Genscript SurePAGE™, Bis-Tris, 4-20%, 15 wells M00657). Anti-PARP1 antibody (ABCAM ab227244) used in the study was 1:1000 diluted, anti-Histone 113 antibody (ABCAM ab1791) was 1.5000 diluted and anti-rabbit IgG HRP-linked Antibody (CST 7074s) was 1:2000 diluted. The bands were detected by standard Western blot protocol.

BRCA mutant animal model = conditions: cited from earlier work
recurrent glioblastoma = conditions: patients with recurrent glioblastoma; cited from earlier work
[9] = separate medication, 5 days, CCK-8, read-out: IC50, proliferation of NCI-H209 cells

T1 sequence (P09874 whole entry): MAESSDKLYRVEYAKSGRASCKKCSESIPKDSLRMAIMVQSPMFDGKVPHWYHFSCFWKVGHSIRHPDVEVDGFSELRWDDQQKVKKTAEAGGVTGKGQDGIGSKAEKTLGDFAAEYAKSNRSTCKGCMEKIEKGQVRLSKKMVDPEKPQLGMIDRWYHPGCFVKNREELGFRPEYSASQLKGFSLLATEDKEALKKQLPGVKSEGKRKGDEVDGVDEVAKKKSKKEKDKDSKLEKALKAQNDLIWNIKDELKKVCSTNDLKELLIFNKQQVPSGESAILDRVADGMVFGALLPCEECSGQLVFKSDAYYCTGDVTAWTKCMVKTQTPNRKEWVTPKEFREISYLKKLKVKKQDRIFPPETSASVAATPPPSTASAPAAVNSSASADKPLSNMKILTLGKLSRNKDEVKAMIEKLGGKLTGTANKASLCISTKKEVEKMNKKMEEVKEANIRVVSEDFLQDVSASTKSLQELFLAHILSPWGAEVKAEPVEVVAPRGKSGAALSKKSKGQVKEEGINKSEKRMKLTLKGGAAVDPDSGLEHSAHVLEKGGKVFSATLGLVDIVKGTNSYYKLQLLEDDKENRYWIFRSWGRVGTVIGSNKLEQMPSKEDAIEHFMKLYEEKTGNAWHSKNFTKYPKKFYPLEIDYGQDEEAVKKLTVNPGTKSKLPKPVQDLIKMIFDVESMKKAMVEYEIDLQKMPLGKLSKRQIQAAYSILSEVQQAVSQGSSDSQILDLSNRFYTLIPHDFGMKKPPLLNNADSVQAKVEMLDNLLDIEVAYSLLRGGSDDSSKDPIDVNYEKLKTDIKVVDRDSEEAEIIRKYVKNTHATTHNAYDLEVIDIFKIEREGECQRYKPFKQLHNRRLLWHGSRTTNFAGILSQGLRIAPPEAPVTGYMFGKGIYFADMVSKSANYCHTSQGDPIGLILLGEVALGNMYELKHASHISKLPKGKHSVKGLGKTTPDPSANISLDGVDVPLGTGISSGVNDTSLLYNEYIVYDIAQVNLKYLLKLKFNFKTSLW

IC50 [3, 9]: 113 nM | grey density value of PARP1 band (PARP1 [7]; 0.01 μmol/L drug, DU145): 3667.63 | grey density value of PARP1 band (PARP1 [7]; 0.1 μmol/L drug, DU145): 4932.39 | grey density value of PARP1 band (PARP1 [7]; 1 μmol/L drug, DU145): 6036.79 | grey density value of PARP1 band (PARP1 [7]; 10 μmol/L drug, DU145): 5302.8 | PARP1 trapping in nuclear chromosome (PARP1 [7]; 0.01-10 μM, DU145 cells treated with MMS): good PARP1 trapping | PARP1 trapping in nuclear chromosome (PARP1 [8]; 0.1-10 μM in HCT116 cells in the presence of TMZ): good PARP1 trapping | grey density value of PARP1 band (PARP1 [8]; IMP4297 0.1 μmol/L in the presence of TMZ 1 mM): 398 | grey density value of PARP1 band (PARP1 [8]; IMP4297 0.1 μmol/L, vehicle (no TMZ)): 141 | grey density value of PARP1 band (PARP1 [8]; IMP4297 10 μmol/L in the presence of TMZ 1 mM): 446 | grey density value of PARP1 band (PARP1 [8]; IMP4297 10 μmol/L, vehicle (no TMZ)): 182
Compound: O=C(c1cc(Cn2c(=O)[nH]c(=O)c3c(F)cccc32)ccc1F)N1CCN(c2ncccn2)CC1 [IMP4297, 5-fluoro-1-(4-fluoro-3-(4-(pyrimidin-2-yl)piperazine-1-carbonyl)benzyl)quinazoline-2,4(1H,3H)-dione]
T/C (%) ([1]; IMP4297 10 mpk p.o. QD x 21 D): 79.12** % | TGI (%) ([1]; IMP4297 10 mpk p.o. QD x 21 D): 18.80** % | body weight reduction during the experiment [1]: no body weight reduction | inhibitory effect on tumor growth versus vehicle ([1]; single agent: TMZ 3 mg/kg, IMP4297 10 mg/kg): no significant inhibitory effect on tumor growth | therapeutic window [2]: 8 fold | effective dose as a single agent [4]: 2.5-20 mg/kg per day | therapeutic window (cancer [5]): 6 fold | clinically effective dose as a single agent (cancer [6]; cancer patients): 20 to 120 mg | RP2D as a single agent (cancer [6]): 100 mg | PARP1 trapping compared with Olaparib (PARP1 [7]; same concentrations and conditions, DU145): stronger PARP1 trapping in nuclear chromosome than Olaparib

IC50 ([3]; read-out: IC50, proliferation of NCI-H209 cells): 2180 nM
Compound: O=C(c1cc(Cc2n[nH]c(=O)c3ccccc23)ccc1F)N1CCN(C(=O)C2CC2)CC1 [Olaparib]
single effective dose (BRCA mutant animal model; BRCA mutant animal model study): 50-100 mg/kg per day | effect on TMZ-related hematological toxicity (recurrent glioblastoma): exacerbate TMZ-related hematological toxicity

Average weight change (%) ([1]; TMZ 3 mg/kg p.o. QD x 21 D, versus initial weight): 7.99 ± 5.21% | IC50 [3, 9]: > 100000 nM
Compound: Cn1nnc2c(C(N)=O)ncn2c1=O [TMZ, Temozolomide, reference compound]
T/C (%) ([1]; TMZ 3 mg/kg p.o. QD x 21 D): 64.03**** % | TGI (%) ([1]; TMZ 3 mg/kg p.o. QD x 21 D): 31.66**** % | body weight reduction during the experiment [1]: no body weight reduction

Compound: Cn1ncnc1[C@H]1c2n[nH]c(=O)c3cc(F)cc(c23)N[C@@H]1c1ccc(F)cc1 [Talazoparib]
single agent effective dose (BRCA mutant animal model; BRCA mutated model): 0.33 mg/kg

Reference: patent US20230263801A1, “COMBINATION THERAPY OF PARP INHIBITORS” (IMPACT THERAPEUTICS (SHANGHAI), INC, priority 2020, published 2023)
